Source: patent US20100160454A1, “ANTIMICROBIAL AGENTS, COMPOSITIONS AND PRODUCTS CONTAINING THE SAME, AND METHODS OF USING THE COMPOSITIONS AND PRODUCTS” (Eastman Chemical Company, priority 2008, published 2010)

Columns and labels:
Format in all cases: cell-based
[1] = test system: Malassezia furfur (ATCC 96809); assay: Challenge testing against pathogenic fungi, growth rating in broth tubes; parameters: key: 0: No visible growth; 1: Some growth in tube; 2: Moderate growth in tube; 3: Good growth in tube; 4: Extreme growth in tube
Description: (§1) Both Microsporum canis and Trichophyton rubrum were grown on Sabouraud dextrose broth, while Malassezia fufur was grown in Sabouraud dextrose broth supplemented with 2% (v/v) of olive oil and 0.2% (v/v) of Tween™ 80; incubation was at 22°±2° C. under continuous agitation by stirring for 10 days. The organisms were grown to a density of between 1.0×10^3 to 1.0×10^4 cfu/g. The actual inoculation cell density of these challenges were determined by diluting in sterile buffer water and (spread-plate method) plating for enumeration.
(§2) Challenge organisms were used to inoculate tubes of 1,4-CHDM-D90 test concentrations prepared in Sabouraud dextrose broth (or Sabouraud dextrose broth supplemented with olive oil-Tween™ 80 with M. furfur). The inoculations were in the amount of 1.5 mL aliquots of each culture with static incubation at 22±2° C. Subcultures were made at 3-, 14- and 30-day increments. All challenges were conducted in triplicate. In the case of M. canis, the growth response was assessed by the visual presence/absence of growth in the tubes; in the case of T. rubrum, a respiratory (redox) dye (0.2% w/v aqueous INT solution: 2-[4-iodophenyl)-3-4-nitrophenyl]-5-phenyl tetrazolium chloride) was added to the tubes, turning red if the organism was viable; and, finally, in the case of M. furfur, the growth response was assessed based upon pellicle formation in the tubes at the meniscus. The test formulations and challenge test results, as well as 30-day MICs (Minimum Inhibitory Concentration), are in Tables 7-9 for the three organisms using the following growth rating system:
(§3) • 0: No visible growth • 1: Some growth in tube • 2: Moderate growth in tube • 3: Good growth in tube • 4: Extreme growth in tube

[2] = test system: Trichophyton rubrum (ATCC 10218); assay: as above; parameters: key: 0: No visible growth; 1: Some growth in tube; 2: Moderate growth in tube; 3: Good growth in tube; 4: Extreme growth in tube
Description: as §1, §2, §3

[3] = test system: Candida albicans Wild type; assay: Microbiological challenge testing in BPW broth, graded subculture counts; conditions: C. albicans
Description: The microorganisms in the table below were used in challenge tests. They were either ATCC (American Type Culture Collection) or “wild type” as indicated. Wild type organisms were problematic organisms previously isolated from chemical products.
All of the microorganisms were grown in Tryptose Soy Broth (TSB), DIFCO™ available from Becton, Dickinson and Company, containing 1% dextrose. Candida albicans and Aspergillus niger, were incubated at 22° C.+/−2° C. for at least 96 hours. All bacteria were incubated at 35° C.+/−2° C. in a humidified incubator for at least 96 hours.
Candida albicans and Aspergillus niger were also grown on Sabouraud Dextrose Agar (SABD) at 22° C. for 7 to 14 days or until full sporulation was achieved.
The following procedure was followed to determine the amount of each challenge material (inoculum broth) needed to produce a 10^8 CFU/mL challenge, which is equivalent to a final test-sample microbial concentration of 10^5 to 10^6 CFU/mL (CFU=colony forming units).
Using a sterile pipette, 1 mL of the growth from each TSB culture was transferred into tubes of 9 mL buffered water (pH 7.2 phosphate buffer) and mixed thoroughly. This was repeated to make serial 1:10 dilutions. Then, 0.1 mL of each sample and dilution was inoculated onto agar plates to produce the equivalent of a further 1:10 dilution. (C. albicans and A. niger were inoculated onto SABD and bacteria were inoculated onto Plate Count Agar (PCA), DIFCO™ available from Becton, Dickinson and Company.) (The normal volume plated for most samples was 0.1 mL. Some samples that could be very low in micro-organisms (high dilutions) were plated using 0.5 mL of inoculum, in order to produce reproducible counts.) The samples were distributed on the plates using the spread-plate technique. The spread-plate technique is carried out by spreading the sample over the entire plate surface using a sterile spreading rod while rotating the plate with a rotary auto-plater. After the inoculum was absorbed completely by the agar, each plate was inverted and incubated (fungi at 22° C.+/−2° C. and bacteria at 35° C.+/−2° C.).
After incubation for at least 48 hours, colonies that had developed on the agar plates were counted (CFU) and recorded with the corresponding dilution. If counting had to be delayed temporarily, plates were refrigerated, preferably no more than 24 hours, until they could be counted. The number of CFU/mL was determined by multiplying the plate count by the dilution factor of the plate counted.
Turbidity in Nepholemetric Turbidity Units (NTU) was measured for each serial dilution using the HF-Micro 100 Model Turbidimeter. For each microorganism, the plate counts were compared to the turbidity readings.
On the day of challenge, the Candida albicans inoculum broth was poured through nonabsorbent sterile gauze and centrifuged. The […] was then diluted with buffered water (pH 7.2 phosphate buffer) until the desired turbidity was reached. Using a hemocytometer, a determination was made whether the challenge contained the desired concentration. Dilutions were made through 1.0×10^8 and three SABD spread plates were inoculated with 0.1 mL of each dilution. The plates were incubated for at least 48 hours and challenge counts were confirmed.
Control substrates (“broth alone”) were prepared for each microorganism separately in triplicate by adding 13.5 mL of Buffered Peptone Water broth (BPW) containing 1% dextrose to each 20-mL glass tube, then adding 1.5 mL challenge material to produce a final concentration at time zero of 10^5 to 10^6 CFU/mL and a total volume of 15 mL.

Compound	M. furfur growth rating, 3 day ([1]; 0.5% weight/volume)	M. furfur growth rating, 14 day ([1]; 0.5% weight/volume)	M. furfur growth rating, 30 day ([1]; 0.5% weight/volume)	M. furfur growth rating, 3 day ([1]; 1.25% weight/volume)	M. furfur growth rating, 14 day ([1]; 1.25% weight/volume)	M. furfur growth rating, 30 day ([1]; 1.25% weight/volume)	M. furfur growth rating, 3 day ([1]; 2.5% weight/volume)	M. furfur growth rating, 14 day ([1]; 2.5% weight/volume)	M. furfur growth rating, 30 day ([1]; 2.5% weight/volume)	M. furfur growth rating, 3 day ([1]; 5.0% weight/volume)	M. furfur growth rating, 14 day ([1]; 5.0% weight/volume)	M. furfur growth rating, 30 day ([1]; 5.0% weight/volume)	T. rubrum growth rating, 3 day ([2]; 0.5% weight/volume)	T. rubrum growth rating, 14 day ([2]; 0.5% weight/volume)	T. rubrum growth rating, 30 day ([2]; 0.5% weight/volume)	T. rubrum growth rating, 3 day ([2]; 1.25% weight/volume)	T. rubrum growth rating, 14 day ([2]; 1.25% weight/volume)	T. rubrum growth rating, 30 day ([2]; 1.25% weight/volume)	T. rubrum growth rating, 3 day ([2]; 2.5% weight/volume)	T. rubrum growth rating, 14 day ([2]; 2.5% weight/volume)	other results
OCC1CCCCC1CO (stereo not drawn) [1,2-CHDM, 1,2-cyclohexanedimethanol]	0	0	0	0	0	0	0	0	0	0	0	0	0	0	0	0	0	0	1	0	T. rubrum growth rating, 30 day ([2]; 2.5% weight/volume): 0; T. rubrum growth rating, 3 day ([2]; 5.0% weight/volume): 0; T. rubrum growth rating, 14 day ([2]; 5.0% weight/volume): 0; T. rubrum growth rating, 30 day ([2]; 5.0% weight/volume): 0; Grade ([3]; 0.5% (wt/vol), 3 day): 4 (1000 to 10,000 colonies countable (thus 10,000 CFU/mL to 100,000 CFU/mL)); Grade ([3]; 0.5% (wt/vol), 14 day): 4 (1000 to 10,000 colonies countable (thus 10,000 CFU/mL to 100,000 CFU/mL)); Grade ([3]; 0.5% (wt/vol), 30 day): 4 (1000 to 10,000 colonies countable (thus 10,000 CFU/mL to 100,000 CFU/mL)); Grade ([3]; 1.25% (wt/vol), 3 day): 4 (1000 to 10,000 colonies countable (thus 10,000 CFU/mL to 100,000 CFU/mL)); Grade ([3]; 1.25% (wt/vol), 14 day): 4 (1000 to 10,000 colonies countable (thus 10,000 CFU/mL to 100,000 CFU/mL)); Grade ([3]; 1.25% (wt/vol), 30 day): 4 (1000 to 10,000 colonies countable (thus 10,000 CFU/mL to 100,000 CFU/mL)); Grade ([3]; 2.5% (wt/vol), 3 day): 0; Grade ([3]; 2.5% (wt/vol), 14 day): 0; Grade ([3]; 2.5% (wt/vol), 30 day): 0; Grade ([3]; 5.0% (wt/vol), 3 day): 0; Grade ([3]; 5.0% (wt/vol), 14 day): 0; Grade ([3]; 5.0% (wt/vol), 30 day): 0
OCC1CCCC(CO)C1 (stereo not drawn) [1,3-CHDM, 1,3-cyclohexanedimethanol]	0	1	3	0	2	3	0	0	0	0	2	3	0	2	1	1	0	0	0	0	T. rubrum growth rating, 30 day ([2]; 2.5% weight/volume): 0; T. rubrum growth rating, 3 day ([2]; 5.0% weight/volume): 2; T. rubrum growth rating, 14 day ([2]; 5.0% weight/volume): 0; T. rubrum growth rating, 30 day ([2]; 5.0% weight/volume): 0; Grade ([3]; 0.5% (wt/vol), 3 day): 4 (1000 to 10,000 colonies countable (thus 10,000 CFU/mL to 100,000 CFU/mL)); Grade ([3]; 0.5% (wt/vol), 14 day): 4 (1000 to 10,000 colonies countable (thus 10,000 CFU/mL to 100,000 CFU/mL)); Grade ([3]; 0.5% (wt/vol), 30 day): 4 (1000 to 10,000 colonies countable (thus 10,000 CFU/mL to 100,000 CFU/mL)); Grade ([3]; 1.25% (wt/vol), 3 day): 4 (1000 to 10,000 colonies countable (thus 10,000 CFU/mL to 100,000 CFU/mL)); Grade ([3]; 1.25% (wt/vol), 14 day): 4 (1000 to 10,000 colonies countable (thus 10,000 CFU/mL to 100,000 CFU/mL)); Grade ([3]; 1.25% (wt/vol), 30 day): 4 (1000 to 10,000 colonies countable (thus 10,000 CFU/mL to 100,000 CFU/mL)); Grade ([3]; 2.5% (wt/vol), 3 day): 4 (1000 to 10,000 colonies countable (thus 10,000 CFU/mL to 100,000 CFU/mL)); Grade ([3]; 2.5% (wt/vol), 14 day): 4 (1000 to 10,000 colonies countable (thus 10,000 CFU/mL to 100,000 CFU/mL)); Grade ([3]; 2.5% (wt/vol), 30 day): 4 (1000 to 10,000 colonies countable (thus 10,000 CFU/mL to 100,000 CFU/mL)); Grade ([3]; 5.0% (wt/vol), 3 day): 0; Grade ([3]; 5.0% (wt/vol), 14 day): 2 (52 to 100 colonies counted (thus 520 to 1000 CFU/mL)); Grade ([3]; 5.0% (wt/vol), 30 day): 3 (100 to 1000 colonies (thus 1000 to 10,000 CFU/mL))
